Experimental data reported in BigSolDB 2.1.

O=C1OC(=O)[C@H]2[C@@H]1[C@H]1C=C[C@@H]2C1
solubility (mole fraction)
Settings | 278.15 K | 283.15 K | 288.15 K | 293.15 K | 298.15 K | 303.15 K | 308.15 K | 313.15 K | 318.15 K | 323.15 K
in 1,4-dioxane | – | – | 0.177 | 0.199 | 0.221 | 0.249 | 0.273 | 0.304 | 0.334 | 0.37
in DMF | 0.209 | 0.23 | 0.246 | 0.267 | 0.288 | 0.309 | 0.337 | 0.361 | 0.389 | 0.419
in NMP | 0.257 | 0.271 | 0.289 | 0.305 | 0.325 | 0.345 | 0.371 | 0.392 | 0.421 | 0.448
in acetone | 0.13 | 0.144 | 0.162 | 0.179 | 0.201 | 0.223 | 0.251 | 0.276 | 0.308 | –
in ethanol | 0.00405 | 0.00536 | 0.00707 | 0.00927 | 0.0117 | 0.0155 | 0.02 | 0.0255 | 0.0321 | 0.0404
in ethyl acetate | 0.0719 | 0.0849 | 0.101 | 0.115 | 0.134 | 0.154 | 0.176 | 0.201 | 0.226 | 0.254
in isopentyl acetate | 0.0426 | 0.0504 | 0.0608 | 0.07 | 0.0818 | 0.0952 | 0.107 | 0.125 | 0.145 | 0.165
in isopropyl acetate | 0.0541 | 0.0637 | 0.0745 | 0.0862 | 0.102 | 0.117 | 0.133 | 0.152 | 0.172 | 0.196
in methyl acetate | 0.0936 | 0.11 | 0.127 | 0.145 | 0.166 | 0.189 | 0.214 | 0.24 | 0.269 | 0.298
in n-butyl acetate | 0.0526 | 0.0614 | 0.0725 | 0.0835 | 0.0969 | 0.111 | 0.128 | 0.145 | 0.165 | 0.189
in n-hexyl acetate | 0.0377 | 0.0447 | 0.0525 | 0.0614 | 0.0717 | 0.0828 | 0.0955 | 0.11 | 0.125 | 0.144
in n-pentyl acetate | 0.0448 | 0.0526 | 0.0615 | 0.0717 | 0.0833 | 0.0964 | 0.111 | 0.126 | 0.144 | 0.165
in n-propyl acetate | 0.0616 | 0.0722 | 0.0852 | 0.0981 | 0.112 | 0.13 | 0.148 | 0.17 | 0.191 | 0.215
in octyl acetate | 0.0303 | 0.036 | 0.0424 | 0.0496 | 0.0576 | 0.0666 | 0.0774 | 0.0875 | 0.1 | 0.115
